Measurements published in the NIST ThermoML archive (doi:10.1021/je800786k).

Conditions: Liquid, Vibrating tube method

CCCCCCC(C)N (stereo not given) [1-methylheptylamine]
mass density [kg/m3]
Conditions | 293.15 K | 303.15 K | 313.15 K | 323.15 K | 333.15 K | 343.15 K
100 kPa | 772 | 764 | 755.8 | 748.1 | 739.6 | 731.5
10000 kPa | 778.7 | 771.3 | 763.5 | 756 | 748.1 | 740.5
20000 kPa | 784.8 | 777.8 | 770.4 | 763.2 | 755.5 | 748.6
30000 kPa | 790.6 | 783.8 | 776.7 | 769.9 | 762.6 | 756
40000 kPa | 796.1 | 789.2 | 782.5 | 776 | 769 | 762.7
50000 kPa | 801.2 | 794.5 | 788.1 | 781.6 | 775 | 768.9
60000 kPa | 806 | 799.5 | 793.2 | 787.1 | 780.6 | 774.7
70000 kPa | 810.6 | 804.2 | 798.1 | 792.2 | 785.8 | 780.2
80000 kPa | 815 | 808.7 | 802.7 | 797 | 790.9 | 785.3
90000 kPa | 819.1 | 813 | 807.1 | 801.5 | 795.5 | 790.2
100000 kPa | 823.2 | 817.1 | 811.4 | 805.9 | 800 | 794.9
110000 kPa | 826.9 | 821 | 815.5 | 810.1 | 804.4 | 799.2
120000 kPa | 830.6 | 824.8 | 819.4 | 814.1 | 808.5 | 803.4
130000 kPa | 834.2 | 828.5 | 823.1 | 818 | 812.5 | 807.5
140000 kPa | 837.6 | 832 | 826.7 | 821.6 | 816.3 | 811.4
